In article PMC9837035 (Nature Communications, 2023):
Where “and” joins values, the source holds several entries; their conditions need not be identical. Equal values may be shown once.

How the values were obtained:
[1] = test system: BGLT3 RNA in HUDEP-2 cells; assay: RT-qPCR of BGLT3 in HUDEP-2 cells; assay type: cell-based, human; settings: Sup.Fig.11a; relative to DMSO = 1; replicate values
Description: (§1) Total cellular RNA was prepared using the Tissue Total RNA Mini Kit (FAVORGEN), and cDNA was synthesized using ReverTra Ace Master Mix (TOYOBO). Expression of target genes was analyzed using THUNDERBIRD SYBR qPCR Mix (TOYOBO) on a CFX Connect Real Time System (Bio-Rad). The qPCR data were acquired on CFX Maestro (Bio-Rad). Primers are listed in Supplementary Table 10. GAPDH was used as a reference. Primers were purchased from INTEGRATED DNA TECHNOLOGIES or FASMAC.

[2] = test system: BGLT3-knockdown HUDEP-2 cells; assay: RT-qPCR of BGLT3, β- and γ-globin in BGLT3-knockdown HUDEP-2 cells; assay type: cell-based, human; settings: 1 μM, relative to shctrl DMSO = 1, replicate values
Description: as §1
Retroviral infection was used as previously described to establish cell lines stably expressing BGLT3 and transfected with the pCX4-pur vector, as well as knockdown cell lines transfected with the pSUPER vector[58]. Briefly, retroviruses were produced by transfecting PLAT-E cells with pCX4-pur-BGLT3 or pSUPER-ctrl, pSUPER-BGLT3, or pSUPER-G9a using 5 μg/mL polyethylenimine MAX (PEI MAX, Polysciences). Two days after transfection, the culture supernatant was collected and filtered through a 0.45-μm filter (Millipore) and used for infection with 8 μg/mL polybrene (Sigma). Forty-eight hours after infection, the infected cells were selected with 0.2 μg/mL puromycin (InvivoGen). The clonal puromycin-resistant cells were established via limiting dilution. The desired clones were confirmed by western blotting or qPCR.

[3] = test system: H3K9ac at the β-globin locus; assay: ChIP-qPCR with antibody against H3K9ac in HUDEP-2 cells; assay type: cell-based, human; set-up: ChIP-qPCR using antibodies against H3K9ac in HUDEP-2 cells treated with SAHA: unit not given here; settings: for ChIP-qPCR using antibodies against H3K9ac in HUDEP-2 cells treated with SAHA: experiments 1-3, a/b replicates
Description: A total of 0.5–1 × 10^6 cells were cross-linked with 1% formaldehyde for 10 min at room temperature and the reaction was quenched with 250 mM glycine. Cross-linked cells were then lysed with buffer 1 (15 mM Tris-HCl (pH 7.5), 60 mM KCl, 15 mM NaCl, 5 mM MgCl2, 0.1 mM EGTA, 300 mM sucrose, […], 1 mM phenylmethanesulfonyl fluoride (PMSF), 0.5% NP40) and incubated on ice for 10 min. […] After centrifugation, the pellet was then re-suspended in MNase buffer (50 mM Tris-HCl (pH 7.5), 1 mM CaCl2, 4 mM MgCl2, 320 mM sucrose, 1 mM PMSF) and digested with 100 U of micrococcal nuclease (Takara) at 37 °C for 15 min. […] Beads were washed sequentially once with the following buffers: wash buffer A (50 mM Tris-HCl (pH 7.5), 75 mM NaCl, 10 mM EDTA, 0.01% NP40), wash buffer B (50 mM Tris-HCl (pH 7.5), 100 mM NaCl, 10 mM EDTA, 0.01% NP40), wash buffer C (50 mM Tris-HCl (pH 7.5), 175 mM NaCl, 10 mM EDTA, 0.01% NP40). After treatment with proteinase K in buffer 4 (20 mM Tris-HCl (pH 8.0), 10 mM EDTA, 400 mM NaCl, 0.5% SDS) at 56 °C overnight, DNA was purified using the FastGene Gel/PCR Extraction Kit (Nippon Genetics). The samples were analyzed by qPCR. Primers are listed in Supplementary Table 10. ChIP-seq experiments were performed by GENEWIZ. Tracks were visualized using the integrative genome viewer. ChIP-seq analysis were analyzed Cutadapt (V1.9.1) for QC, FastQC (V0.10.1) for QC assessment, Bowtie (V2.1.0) for mapping, strand cross-correlation (SCC) for ChIP quality assessment, MACS2 for peak calling, and R package ChIPpeakAnno for Peak annotated.

[4] = target: T1, ASH1L (Homo sapiens, UniProt Q9NR48); assay: Radioisotope-based methyltransferase assay (selectivity); assay type: biochemical; settings: IC50, ASH1L
T1 construct: purchased Reaction Biology

[5] = target: T2, NSD3 (Homo sapiens, UniProt Q9BZ95); assay: as above; assay type: biochemical
T2 construct: purchased Reaction Biology
T2 sequence (Q9BZ95 1-1437): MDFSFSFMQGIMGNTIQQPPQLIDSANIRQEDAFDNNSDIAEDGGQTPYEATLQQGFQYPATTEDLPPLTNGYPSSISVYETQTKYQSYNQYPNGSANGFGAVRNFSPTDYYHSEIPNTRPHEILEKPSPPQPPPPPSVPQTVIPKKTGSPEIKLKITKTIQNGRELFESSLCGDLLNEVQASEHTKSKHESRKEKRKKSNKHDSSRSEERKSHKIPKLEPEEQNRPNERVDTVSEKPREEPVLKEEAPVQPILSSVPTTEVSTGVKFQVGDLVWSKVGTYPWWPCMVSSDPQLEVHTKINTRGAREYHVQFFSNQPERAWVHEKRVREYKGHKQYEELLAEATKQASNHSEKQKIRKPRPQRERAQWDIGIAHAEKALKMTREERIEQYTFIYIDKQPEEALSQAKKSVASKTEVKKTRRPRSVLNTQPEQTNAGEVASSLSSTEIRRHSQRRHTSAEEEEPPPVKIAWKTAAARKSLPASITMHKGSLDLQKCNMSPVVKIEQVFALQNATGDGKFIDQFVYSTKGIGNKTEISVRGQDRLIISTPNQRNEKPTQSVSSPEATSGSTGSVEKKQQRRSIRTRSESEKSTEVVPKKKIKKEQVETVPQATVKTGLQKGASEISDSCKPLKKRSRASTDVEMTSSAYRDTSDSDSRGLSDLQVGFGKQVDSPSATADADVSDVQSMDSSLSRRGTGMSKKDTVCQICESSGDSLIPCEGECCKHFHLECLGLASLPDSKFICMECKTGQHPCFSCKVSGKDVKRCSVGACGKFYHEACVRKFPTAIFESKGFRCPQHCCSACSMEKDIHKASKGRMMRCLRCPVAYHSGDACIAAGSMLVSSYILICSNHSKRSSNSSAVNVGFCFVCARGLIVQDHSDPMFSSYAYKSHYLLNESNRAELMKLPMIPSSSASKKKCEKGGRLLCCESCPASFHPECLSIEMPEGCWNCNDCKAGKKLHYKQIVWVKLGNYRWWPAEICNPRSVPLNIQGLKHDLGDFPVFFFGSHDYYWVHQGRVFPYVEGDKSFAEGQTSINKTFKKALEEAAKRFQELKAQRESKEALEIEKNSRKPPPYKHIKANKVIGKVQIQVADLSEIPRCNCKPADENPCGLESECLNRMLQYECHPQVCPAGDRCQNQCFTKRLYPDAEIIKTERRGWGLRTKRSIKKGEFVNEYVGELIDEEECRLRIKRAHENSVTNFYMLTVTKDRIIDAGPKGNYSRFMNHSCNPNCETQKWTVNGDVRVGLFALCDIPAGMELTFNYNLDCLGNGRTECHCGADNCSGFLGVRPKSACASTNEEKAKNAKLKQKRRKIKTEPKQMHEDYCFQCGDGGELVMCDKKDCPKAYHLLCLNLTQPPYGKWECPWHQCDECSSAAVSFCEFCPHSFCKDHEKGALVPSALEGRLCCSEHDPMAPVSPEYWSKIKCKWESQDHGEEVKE

[6] = target: T3, PRDM9 (Homo sapiens, UniProt Q9NQV7); assay: as above; assay type: biochemical
T3 construct: purchased Reaction Biology
T3 sequence (Q9NQV7 whole entry): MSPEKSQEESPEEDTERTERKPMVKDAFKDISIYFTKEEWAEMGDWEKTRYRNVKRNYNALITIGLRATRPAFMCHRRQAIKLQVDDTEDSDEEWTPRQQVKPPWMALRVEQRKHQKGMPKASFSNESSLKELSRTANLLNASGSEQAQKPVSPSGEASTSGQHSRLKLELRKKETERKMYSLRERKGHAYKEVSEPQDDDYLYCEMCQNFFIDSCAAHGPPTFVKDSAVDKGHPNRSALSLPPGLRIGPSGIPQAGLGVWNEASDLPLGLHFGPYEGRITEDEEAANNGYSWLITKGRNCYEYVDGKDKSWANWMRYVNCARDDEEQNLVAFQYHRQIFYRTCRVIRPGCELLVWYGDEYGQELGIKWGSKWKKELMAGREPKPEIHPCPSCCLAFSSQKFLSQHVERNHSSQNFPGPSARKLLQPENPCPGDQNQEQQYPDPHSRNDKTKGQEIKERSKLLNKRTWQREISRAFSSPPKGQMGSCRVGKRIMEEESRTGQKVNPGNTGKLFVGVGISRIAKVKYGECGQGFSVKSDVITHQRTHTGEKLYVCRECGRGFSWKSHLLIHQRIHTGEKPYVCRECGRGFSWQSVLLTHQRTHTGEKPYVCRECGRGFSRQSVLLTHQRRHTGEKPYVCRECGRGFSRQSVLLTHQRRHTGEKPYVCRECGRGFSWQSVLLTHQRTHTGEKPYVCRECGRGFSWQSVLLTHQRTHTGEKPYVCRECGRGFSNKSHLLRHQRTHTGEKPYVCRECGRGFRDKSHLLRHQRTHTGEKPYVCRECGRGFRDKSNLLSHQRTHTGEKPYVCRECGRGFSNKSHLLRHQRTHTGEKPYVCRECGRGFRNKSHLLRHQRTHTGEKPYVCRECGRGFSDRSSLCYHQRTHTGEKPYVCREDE

## O=C(CCCCCCC(=O)Nc1ccccc1)NO [SAHA]
[1]
  BGLT3 expression in HUDEP-2 cells: 4.739 and 6.125 and 5.109
[2]; shBGLT3 #1
  β-globin gene in BGLT3-knockdown HUDEP-2 cells: 2.301 and 2.189 and 2.546
  γ-globin gene in BGLT3-knockdown HUDEP-2 cells: 4.852 and 4.747 and 4.193
[2]; shBGLT3 #2
  β-globin gene in BGLT3-knockdown HUDEP-2 cells: 1.2128 and 1.2413 and 1.0394
  γ-globin gene in BGLT3-knockdown HUDEP-2 cells: 3.094 and 3.659 and 2.955
[2]; shBGLT3 #3
  β-globin gene in BGLT3-knockdown HUDEP-2 cells: 2.448 and 2.303 and 2.192
  γ-globin gene in BGLT3-knockdown HUDEP-2 cells: 2.0995 and 2.031 and 1.807
[2]; shctrl
  β-globin gene in BGLT3-knockdown HUDEP-2 cells: 3.928 and 4.654 and 3.722
  γ-globin gene in BGLT3-knockdown HUDEP-2 cells: 13.6262 and 15.6907 and 11.2259
[3]; BGLT3 locus
  ChIP-qPCR using antibodies against H3K9ac in HUDEP-2 cells treated with SAHA: 4.594 and 4.901 and 3.587 and 4.136 and 7.628 and 5.8678
[3]; HS1
  ChIP-qPCR using antibodies against H3K9ac in HUDEP-2 cells treated with SAHA: 3.554 and 4.79 and 1.956 and 6.9673 and 5.354
[3]; HS2
  ChIP-qPCR using antibodies against H3K9ac in HUDEP-2 cells treated with SAHA: 3.581 and 3.815 and 1.139 and 1.6187 and 3.866 and 3.138
[3]; HS3
  ChIP-qPCR using antibodies against H3K9ac in HUDEP-2 cells treated with SAHA: 2.6549 and 2.681 and 1.467 and 2.973 and 2.979
[3]; HS4
  ChIP-qPCR using antibodies against H3K9ac in HUDEP-2 cells treated with SAHA: 3.747 and 4.945 and 3.035 and 2.8654 and 4.964 and 4.658
[3]; HUDEP-2, 1 μM, 1 day
  histone H3 acetylation at the β-globin gene locus: increased
[3]; β-globin promoter
  ChIP-qPCR using antibodies against H3K9ac in HUDEP-2 cells treated with SAHA: 1.524 and 1.253 and 1.188 and 2.806 and 2.767
[3]; γ-globin promoter
  ChIP-qPCR using antibodies against H3K9ac in HUDEP-2 cells treated with SAHA: 0.7378 and 1.324 and 1.03 and 1.066 and 1.991 and 1.048
[3]; δ-globin promoter
  ChIP-qPCR using antibodies against H3K9ac in HUDEP-2 cells treated with SAHA: 4.601 and 5.375 and 3.661 and 4.076 and 5.898 and 5.487

## CN1C(=O)[C@@]23C[C@]4([C@]56C[C@@]78SS[C@@](CO)(C(=O)N7[C@H]5Nc5ccccc56)N(C)C8=O)c5ccccc5N[C@@H]4N2C(=O)[C@]1(CO)SS3 [Chaetocin, reference compound]
[4]; 1 μM SAM
  IC50: 93 nM
[4]; RK-701 in duplicate
  IC50: 92.8 nM
[5]; IC50, NSD3, 1 μM SAM
  IC50: 150 nM
[5]; IC50, NSD3, RK-701 in duplicate
  IC50: 150 nM
[6]; IC50, PRDM9, 1 μM SAM
  IC50: 13400 nM
[6]; IC50, PRDM9, RK-701 in duplicate
  IC50: 13400 nM
